Data: patent US20240230656A1, “Predicting Prognosis and Treatment Response of Breast Cancer Patients Using Expression and Cellular Localization of N-Myristoyltransferase” (Oncodrex Inc., priority 2021, published 2024)

What was measured:
[1] = tested on: NMT1; assay: MCF7 gene expression of NMT following insulin stimulation or rapamycin treatment (NMT1); format: cell-based; conditions: MCF7 cells
Source text: (§1) Example 9—MCF7 Gene Expression of NMT and WT1 Regulated Genes Following Insulin Stimulation
(§2) NMT1 was also shown to bind to regions of DNA containing BASP1 regulated growth genes. […] This supports our prediction that phosphorylation is the leading PI3K/AKT/mTOR mediated regulatory mechanism responsible for NMT1 modulation.

[2] = tested on: NMT2; assay: MCF7 gene expression of NMT following insulin stimulation or rapamycin treatment (NMT2); format: cell-based; conditions: MCF7 cells
Source text: as §1, §2

insulin
NMT1 expression following treatment [1]: little change
NMT2 expression following treatment [2]: little change
